Measured values taken from patent US20110251379A1, “COMPOUNDS USEFUL FOR TREATING NEURODEGENERATIVE DISORDERS” (Satori Pharmaceuticals, Inc., priority 2010, published 2011).

These compounds were tested on Aβ-38 (assay: MSD Human (6E10) Ab 3-PLEX elisa, conditioned media of 2B7 cells: Aβ-38). Conditions: Homo sapiens; Aβ-38 (superscript a); read-out: 50% reduction value.
Format: cell-based
Method in brief: (§1)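 Confluent 2B7 cells were treated with compounds for 5 hours at 37° C in media with 1% DMSO. Conditioned media, diluted 1:1 in blocking buffer, was incubated overnight at 4 °C or 2 h at room temperature on MSD 6E10 plates. Aβ levels were read against seven-point standard curves, and IC50 was obtained from 4-parameter fits of percent vehicle.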

For `CC(C)[C@@H](OC(=O)N1CCC1)C1C[C@@H](C)[C@H]2C(O1)[C@H](O)[C@@]1(C)C3CC[C@H]4C(C)(C)C(OC(=O)N5CCn6ccnc6C5)CC[C@@]45C[C@@]35CC[C@]21C` (stereo partly drawn), the IC50 was less than 1 µM.

Same assay, conditions: Homo sapiens; Aβ-38 (superscript a); read-out: IC50 range

`C[C@@H]1CC(CN2CCC[C@@H]2C(=O)O)OC2[C@H]1[C@@]1(C)CC[C@@]34C[C@@]35CC[C@H](O[C@H]3CN(C(=O)CC6CC6)CCO3)C(C)(C)[C@@H]5CCC4[C@]1(C)[C@H]2O` (stereo partly drawn) and `C[C@@H]1CC(CC(=O)O)OC2[C@H]1[C@@]1(C)CC[C@@]34C[C@@]35CC[C@H](O[C@H]3CN(C(=O)CC6CC6)CCO3)C(C)(C)[C@@H]5CCC4[C@]1(C)[C@H]2O` (stereo partly drawn) cannot be ordered by IC50: greater than 10 µM for the first, greater than 10 µM for the second.

First: C[C@@H]1CC(CN(C)CC(=O)O)OC2[C@H]1[C@@]1(C)CC[C@@]34C[C@@]35CC[C@H](O[C@H]3CN(C(=O)CC6CC6)CCO3)C(C)(C)[C@@H]5CCC4[C@]1(C)[C@H]2O (stereo partly drawn)
Second: C[C@@H]1CC(CCC(N)=O)OC2C1[C@@]1(C)CC[C@@]34C[C@@]35CC[C@H](OC3CN(C(=O)CC6CC6)CCO3)C(C)(C)[C@@H]5CC[C@H]4[C@]1(C)[C@H]2O (stereo partly drawn)
The IC50 of the first is higher: greater than 10 µM for the first, 1 to 10 µM for the second. The second is the more potent here.

`C[C@@H]1CC(COC(N)=O)OC2[C@H]1[C@@]1(C)CC[C@@]34C[C@@]35CC[C@H](O[C@H]3CN(C(=O)CC6CC6)CCO3)C(C)(C)[C@@H]5CCC4[C@]1(C)[C@H]2O` (stereo partly drawn) and `C[C@@H]1CC(COC(=O)N2CCC2)OC2[C@H]1[C@@]1(C)CC[C@@]34C[C@@]35CC[C@H](O[C@H]3CN(C(=O)CC6CC6)CCO3)C(C)(C)[C@@H]5CCC4[C@]1(C)[C@H]2O` (stereo partly drawn) cannot be ordered by IC50: less than 1 µM for the first, less than 1 µM for the second.

`COC(=O)NCCC1C[C@@H](C)C2C(O1)[C@H](O)[C@@]1(C)[C@@H]3CC[C@H]4C(C)(C)[C@@H](OC5CN(C(=O)CC6CC6)CCO5)CC[C@@]45C[C@@]35CC[C@]21C` (stereo partly drawn) gave an IC50 of 1 to 10 µM.

What follows are compounds tested on Aβ-40 (assay: MSD Human (6E10) Ab 3-PLEX elisa, conditioned media of 2B7 cells: Aβ-40). Conditions: Homo sapiens, Aβ-40 (superscript b); read-out: 50% reduction value.
Format: cell-based
Method in brief: as §1

In the case of `CC(C)[C@@H](OC(=O)N1CCC1)C1C[C@@H](C)[C@H]2C(O1)[C@H](O)[C@@]1(C)C3CC[C@H]4C(C)(C)C(OC(=O)N5CCn6ccnc6C5)CC[C@@]45C[C@@]35CC[C@]21C` (stereo partly drawn), the IC50 is reported as greater than 10 µM.

Same assay, conditions: Homo sapiens, Aβ-40 (superscript b); read-out: IC50 range

`C[C@@H]1CC(CN2CCC[C@@H]2C(=O)O)OC2[C@H]1[C@@]1(C)CC[C@@]34C[C@@]35CC[C@H](O[C@H]3CN(C(=O)CC6CC6)CCO3)C(C)(C)[C@@H]5CCC4[C@]1(C)[C@H]2O` (stereo partly drawn) and `C[C@@H]1CC(CC(=O)O)OC2[C@H]1[C@@]1(C)CC[C@@]34C[C@@]35CC[C@H](O[C@H]3CN(C(=O)CC6CC6)CCO3)C(C)(C)[C@@H]5CCC4[C@]1(C)[C@H]2O` (stereo partly drawn) cannot be ordered by IC50: greater than 10 µM for the first, greater than 10 µM for the second.

`C[C@@H]1CC(CN(C)CC(=O)O)OC2[C@H]1[C@@]1(C)CC[C@@]34C[C@@]35CC[C@H](O[C@H]3CN(C(=O)CC6CC6)CCO3)C(C)(C)[C@@H]5CCC4[C@]1(C)[C@H]2O` (stereo partly drawn) and `C[C@@H]1CC(CCC(N)=O)OC2C1[C@@]1(C)CC[C@@]34C[C@@]35CC[C@H](OC3CN(C(=O)CC6CC6)CCO3)C(C)(C)[C@@H]5CC[C@H]4[C@]1(C)[C@H]2O` (stereo partly drawn) cannot be ordered by IC50: greater than 10 µM for the first, greater than 10 µM for the second.

First: C[C@@H]1CC(COC(N)=O)OC2[C@H]1[C@@]1(C)CC[C@@]34C[C@@]35CC[C@H](O[C@H]3CN(C(=O)CC6CC6)CCO3)C(C)(C)[C@@H]5CCC4[C@]1(C)[C@H]2O (stereo partly drawn)
Second: C[C@@H]1CC(COC(=O)N2CCC2)OC2[C@H]1[C@@]1(C)CC[C@@]34C[C@@]35CC[C@H](O[C@H]3CN(C(=O)CC6CC6)CCO3)C(C)(C)[C@@H]5CCC4[C@]1(C)[C@H]2O (stereo partly drawn)
The IC50 of the first is higher: greater than 10 µM for the first, 1 to 10 µM for the second.

Same assay, conditions: Homo sapiens; Aβ-40, 100 μM

Work on `COC(=O)NCCC1C[C@@H](C)C2C(O1)[C@H](O)[C@@]1(C)[C@@H]3CC[C@H]4C(C)(C)[C@@H](OC5CN(C(=O)CC6CC6)CCO5)CC[C@@]45C[C@@]35CC[C@]21C` (stereo partly drawn) yielded an inhibition at 100 µM of 25 to 75%.

Each compound was assayed on Aβ-42 (assay: MSD Human (6E10) Ab 3-PLEX elisa, conditioned media of 2B7 cells: Aβ-42). Conditions: Homo sapiens; Aβ-42 (superscript c); read-out: 50% reduction value.
Format: cell-based
Method in brief: as §1

`CC(C)[C@@H](OC(=O)N1CCC1)C1C[C@@H](C)[C@H]2C(O1)[C@H](O)[C@@]1(C)C3CC[C@H]4C(C)(C)C(OC(=O)N5CCn6ccnc6C5)CC[C@@]45C[C@@]35CC[C@]21C` (stereo partly drawn) showed an IC50 of less than 1 µM.

Same assay, conditions: Homo sapiens; Aβ-42 (superscript c); read-out: IC50 range

First: C[C@@H]1CC(CN2CCC[C@@H]2C(=O)O)OC2[C@H]1[C@@]1(C)CC[C@@]34C[C@@]35CC[C@H](O[C@H]3CN(C(=O)CC6CC6)CCO3)C(C)(C)[C@@H]5CCC4[C@]1(C)[C@H]2O (stereo partly drawn)
Second: C[C@@H]1CC(CC(=O)O)OC2[C@H]1[C@@]1(C)CC[C@@]34C[C@@]35CC[C@H](O[C@H]3CN(C(=O)CC6CC6)CCO3)C(C)(C)[C@@H]5CCC4[C@]1(C)[C@H]2O (stereo partly drawn)
The IC50 of the first is higher: greater than 10 µM for the first, 1 to 10 µM for the second.

First: C[C@@H]1CC(CN(C)CC(=O)O)OC2[C@H]1[C@@]1(C)CC[C@@]34C[C@@]35CC[C@H](O[C@H]3CN(C(=O)CC6CC6)CCO3)C(C)(C)[C@@H]5CCC4[C@]1(C)[C@H]2O (stereo partly drawn)
Second: C[C@@H]1CC(CCC(N)=O)OC2C1[C@@]1(C)CC[C@@]34C[C@@]35CC[C@H](OC3CN(C(=O)CC6CC6)CCO3)C(C)(C)[C@@H]5CC[C@H]4[C@]1(C)[C@H]2O (stereo partly drawn)
The IC50 of the first is higher: greater than 10 µM for the first, 1 to 10 µM for the second.

`C[C@@H]1CC(COC(N)=O)OC2[C@H]1[C@@]1(C)CC[C@@]34C[C@@]35CC[C@H](O[C@H]3CN(C(=O)CC6CC6)CCO3)C(C)(C)[C@@H]5CCC4[C@]1(C)[C@H]2O` (stereo partly drawn) and `C[C@@H]1CC(COC(=O)N2CCC2)OC2[C@H]1[C@@]1(C)CC[C@@]34C[C@@]35CC[C@H](O[C@H]3CN(C(=O)CC6CC6)CCO3)C(C)(C)[C@@H]5CCC4[C@]1(C)[C@H]2O` (stereo partly drawn) fall in the same range of IC50: 1 to 10 µM for the first, 1 to 10 µM for the second.

`COC(=O)NCCC1C[C@@H](C)C2C(O1)[C@H](O)[C@@]1(C)[C@@H]3CC[C@H]4C(C)(C)[C@@H](OC5CN(C(=O)CC6CC6)CCO5)CC[C@@]45C[C@@]35CC[C@]21C` (stereo partly drawn) was tested, and the IC50 was 1 to 10 µM.
